In US20260184710A1, “CASITAS B-LINEAGE LYMPHOMA PROTOONCOGENE B (CBL-B) DEGRADING COMPOUNDS AND ASSOCIATED METHODS OF USE” (Arvinas Operations, Inc., priority 2022, published 2026):

Molecular target: T1, Cbl-b (Homo sapiens, UniProt Q13191)
T1 construct: Cbl-b-HiBit KI Jurkat Cells were purchased from Promega; host or cells: Cbl-b-HiBiT knock-in Jurkat cells
Experiment: Cbl-b Degradation Method B (Nano-Glo HiBiT lytic detection)
Type: cell-based
Details: Cbl-b-HiBit KI Jurkat Cells, incubated at least 6-24 hours; for DC50: half maximal degradation, read-out: Cbl-b Degredation Method B IC50; for Dmax: maximum degradation observed, read-out: Cbl-b Degredation Method B Dmax (%)
How it was run: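 An 11-point, 3-fold compound dilution was applied for 6-24 hours to Jurkat cells carrying HiBiT-tagged endogenous Cbl-b. Lytic HiBiT luminescence quantified residual protein. Outputs are DC50 and Dmax relative to DMSO control.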

T1 sequence (Q13191 whole entry): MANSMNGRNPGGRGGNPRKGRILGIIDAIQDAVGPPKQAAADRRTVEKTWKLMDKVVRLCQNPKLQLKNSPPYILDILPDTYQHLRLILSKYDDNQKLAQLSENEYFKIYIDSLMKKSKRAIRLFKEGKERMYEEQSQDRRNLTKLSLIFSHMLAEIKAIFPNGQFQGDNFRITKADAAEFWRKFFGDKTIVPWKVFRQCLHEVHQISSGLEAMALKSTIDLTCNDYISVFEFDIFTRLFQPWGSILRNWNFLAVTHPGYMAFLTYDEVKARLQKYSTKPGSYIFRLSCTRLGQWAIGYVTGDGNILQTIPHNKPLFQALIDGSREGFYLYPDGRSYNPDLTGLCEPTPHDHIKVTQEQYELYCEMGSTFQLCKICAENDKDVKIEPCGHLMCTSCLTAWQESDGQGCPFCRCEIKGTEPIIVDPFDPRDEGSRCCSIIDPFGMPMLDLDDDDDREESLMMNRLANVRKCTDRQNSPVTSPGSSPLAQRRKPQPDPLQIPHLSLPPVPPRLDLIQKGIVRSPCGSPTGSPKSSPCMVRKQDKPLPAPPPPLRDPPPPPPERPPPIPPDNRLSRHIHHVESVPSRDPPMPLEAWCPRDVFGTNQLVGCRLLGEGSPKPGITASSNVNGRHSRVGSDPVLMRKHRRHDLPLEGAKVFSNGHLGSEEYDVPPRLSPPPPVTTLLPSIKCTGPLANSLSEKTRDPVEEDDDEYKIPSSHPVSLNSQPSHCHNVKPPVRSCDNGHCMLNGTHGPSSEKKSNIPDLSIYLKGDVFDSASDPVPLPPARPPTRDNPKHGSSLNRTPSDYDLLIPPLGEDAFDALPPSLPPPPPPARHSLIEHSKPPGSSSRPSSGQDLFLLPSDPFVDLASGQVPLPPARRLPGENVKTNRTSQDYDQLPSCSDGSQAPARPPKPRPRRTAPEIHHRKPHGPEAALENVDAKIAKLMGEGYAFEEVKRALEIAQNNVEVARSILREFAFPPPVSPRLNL

`Cn1cnnc1CC1(c2cccc(N3Cc4c(cc(CN5CCC(c6ccc7c(c6)C(=O)N(C6CCC(=O)NC6=O)C7=O)CC5)cc4C(F)(F)F)C3=O)c2)COC1` (stereo not drawn) [Example 33, 2-(2,6-dioxopiperidin-3-yl)-5-(1-{[2-(3-{3-[(4-methyl-4H-1,2,4-triazol-3-yl)methyl]oxetan-3-yl}phenyl)-3-oxo-7-(trifluoromethyl)-2,3-dihydro-1H-isoindol-5-yl]methyl}piperidin-4-yl)-2,3-dihydro-1H-isoindole-1,3-dione] was tested, and the DC50 was greater than 500 nM.

For `Cn1cnnc1C[C@]1(c2cccc(N3Cc4c(cc(CN5CCN(C[C@H]6CC[C@H](OC7CCN(c8ccc(C9CCC(=O)NC9=O)cn8)CC7)CC6)CC5)cc4C(F)(F)F)C3=O)c2)C[C@H](C#N)C1` (stereo partly drawn) [Example 210, (1r,3r)-3-[(4-methyl-4H-1,2,4-triazol-3-yl)methyl]-3-(3-{1-oxo-6-[(4-{[(1r,4r)-4-({1-[5-(2,6-dioxopiperidin-3-yl)pyridin-2-yl]piperidin-4-yl}oxy)cyclohexyl]methyl}piperazin-1-yl)methyl]-4-(trifluoromethyl)-2,3-dihydro-1H-isoindol-2-yl}phenyl)cyclobutane-1-carbonitrile], the DC50 was greater than 500 nM.

For `Cn1cnnc1CC1(c2cccc(-n3cc4ccc(CN5CCC[C@H](CN6CCN(C[C@H]7CC[C@H](OC8CCN(c9ccc%10c(c9F)CN(C9CCC(=O)NC9=O)C%10=O)CC8)CC7)CC6)C5)cc4n3)c2)COC1` (stereo partly drawn) [Example 147, 3-[4-fluoro-5-[4-[4-[[4-[[(3S)-1-[[2-[3-[3-[(4-methyl-1,2,4-triazol-3-yl)methyl]oxetan-3-yl]phenyl]indazol-6-yl]methyl]-3-piperidyl]methyl]piperazin-1-yl]methyl]cyclohexoxy]-1-piperidyl]-1-oxo-isoindolin-2-yl]piperidine-2,6-dione], the DC50 was greater than 500 nM.

`Cn1cnnc1CC1(c2cccc(N3Cc4c(cc(CN5CC6(C5)CN(CC5CCN(c7cccc8c7C(=O)N(C7CCC(=O)NC7=O)C8=O)CC5)C6)cc4C(F)(F)F)C3=O)c2)COC1` (stereo not drawn) [Example 69, 2-(2,6-dioxopiperidin-3-yl)-4-{4-[(6-{[2-(3-{3-[(4-methyl-4H-1,2,4-triazol-3-yl)methyl]oxetan-3-yl}phenyl)-3-oxo-7-(trifluoromethyl)-2,3-dihydro-1H-isoindol-5-yl]methyl}-2,6-diazaspiro[3.3]heptan-2-yl)methyl]piperidin-1-yl}-2,3-dihydro-1H-isoindole-1,3-dione] was tested, and the DC50 was greater than 500 nM.

Work on `CC1CN(C[C@H]2CC[C@H](OC3CCN(c4ccc5c(c4)n(C(C)C)c(=O)n5C4CCC(=O)NC4=O)CC3)CC2)CCN1Cc1cc2c(c(C(F)(F)F)c1)CN(c1cccc(C3(Cc4nncn4C)CC(C#N)C3)c1)C2=O` (stereo partly drawn) [Example 245, (1r**,3r**)-3-(3-{6-[(2-methyl-4-{[(1r*,4r*)-4-({1-[1-(2,6-dioxopiperidin-3-yl)-2-oxo-3-(propan-2-yl)-2,3-dihydro-1H-1,3-benzodiazol-5-yl]piperidin-4-yl}oxy)cyclohexyl]methyl}piperazin-1-yl)methyl]-1-oxo-4-(trifluoromethyl)-2,3-dihydro-1H-isoindol-2-yl}phenyl)-3-[(4-methyl-4H-1,2,4-triazol-3-yl)methyl]cyclobutane-1-carbonitrile] yielded a DC50 of less than 5 nM and a Dmax greater than 70%.

With `Cc1cc(N2CCC(CN3CCC4(CC3)CN(c3cc5c(c(C(F)(F)F)c3)CN(c3cccc(C6(Cc7nncn7C)CC6)c3)C5=O)C4)CC2)c(F)c2c1C(=O)N(C1CCC(=O)NC1=O)C2` (stereo not drawn) [Example 191, 3-{4-fluoro-7-methyl-5-[4-({2-[2-(3-{1-[(4-methyl-4H-1,2,4-triazol-3-yl)methyl]cyclopropyl}phenyl)-3-oxo-7-(trifluoromethyl)-2,3-dihydro-1H-isoindol-5-yl]-2,7-diazaspiro[3.5]nonan-7-yl}methyl)piperidin-1-yl]-1-oxo-2,3-dihydro-1H-isoindol-2-yl}piperidine-2,6-dione] the DC50 was less than 5 nM and the Dmax was 35 to 70%.

For `Cn1cnnc1C[C@]1(c2cccc(N3Cc4c(cc(CN5CCN(C[C@H]6CC[C@H](OC7CCN(c8cccc(C(=O)NC9CCC(=O)NC9=O)c8)CC7)CC6)CC5)cc4C(F)(F)F)C3=O)c2)C[C@H](C#N)C1` (stereo partly drawn) [Example 198, N-(2,6-dioxopiperidin-3-yl)-3-(4-{[(1r,4r)-4-({4-[(3-oxo-2-{3-[(1r,3r)-3-cyano-1-[(4-methyl-4H-1,2,4-triazol-3-yl)methyl]cyclobutyl]phenyl}-7-(trifluoromethyl)-2,3-dihydro-1H-isoindol-5-yl)methyl]piperazin-1-yl}methyl)cyclohexyl]oxy}piperidin-1-yl)benzamide], the DC50 was 5 to 50 nM and the Dmax was less than 35%.

`Cn1cnnc1CC1(c2cccc(N3Cc4c(cc(CN5CCC(CN6CCC7(CC6)CN(c6cccc8c6CN(C6CCC(=O)NC6=O)C8=O)C7)CC5)cc4C(F)(F)F)C3=O)c2)COC1` (stereo not drawn) [Example 65, 3-(4-{7-[(1-{[2-(3-{3-[(4-methyl-4H-1,2,4-triazol-3-yl)methyl]oxetan-3-yl}phenyl)-3-oxo-7-(trifluoromethyl)-2,3-dihydro-1H-isoindol-5-yl]methyl}piperidin-4-yl)methyl]-2,7-diazaspiro[3.5]nonan-2-yl}-1-oxo-2,3-dihydro-1H-isoindol-2-yl)piperidine-2,6-dione] was tested, and the DC50 was greater than 500 nM.

`Cn1cnnc1CC1(c2cccc(N3Cc4c(cc(CN5CCC(CCCN6CCN(c7ccc8c(c7)C(=O)N(C7CCC(=O)NC7=O)C8=O)CC6)CC5)cc4C(F)(F)F)C3=O)c2)COC1` (stereo not drawn) [Example 61, 2-(2,6-dioxopiperidin-3-yl)-5-{4-[3-(1-{[2-(3-{3-[(4-methyl-4H-1,2,4-triazol-3-yl)methyl]oxetan-3-yl}phenyl)-3-oxo-7-(trifluoromethyl)-2,3-dihydro-1H-isoindol-5-yl]methyl}piperidin-4-yl)propyl]piperazin-1-yl}-2,3-dihydro-1H-isoindole-1,3-dione] showed a DC50 greater than 500 nM.

For `Cn1cnnc1CC1(c2cccc(N3Cc4c(cc(CN5CC6(CCN(c7ccc8c(c7)C(=O)N(C7CCC(=O)NC7=O)C8=O)CC6)C5)cc4C(F)(F)F)C3=O)c2)COC1` (stereo not drawn) [Example 49, 2-(2,6-dioxopiperidin-3-yl)-5-(2-{[2-(3-{3-[(4-methyl-4H-1,2,4-triazol-3-yl)methyl]oxetan-3-yl}phenyl)-3-oxo-7-(trifluoromethyl)-2,3-dihydro-1H-isoindol-5-yl]methyl}-2,7-diazaspiro[3.5]nonan-7-yl)-2,3-dihydro-1H-isoindole-1,3-dione], the DC50 was greater than 500 nM.

`Cc1cc(N2CCC(CN3CCCN(c4cc5c(c(C(F)(F)F)c4)CN(c4cccc([C@]6(Cc7nncn7C)C[C@@H](C#N)C6)c4)C5=O)CC3)CC2)c(F)c2c1C(=O)N(C1CCC(=O)NC1=O)C2` (stereo partly drawn) [Example 170, (1r,3r)-3-(3-{6-[4-({1-[2-(2,6-dioxopiperidin-3-yl)-4-fluoro-7-methyl-1-oxo-2,3-dihydro-1H-isoindol-5-yl]piperidin-4-yl}methyl)-1,4-diazepan-1-yl]-1-oxo-4-(trifluoromethyl)-2,3-dihydro-1H-isoindol-2-yl}phenyl)-3-[(4-methyl-4H-1,2,4-triazol-3-yl)methyl]cyclobutane-1-carbonitrile] was tested, and the DC50 was greater than 500 nM.

For `C[C@@H]1c2nc(N3CCC(O[C@H]4CC[C@H](CN5CCN(Cc6cc7c(c(C(F)(F)F)c6)CN(c6cccc(C8(Cc9nncn9C)CC(C#N)C8)c6)C7=O)[C@@H](C)C5)CC4)CC3)ccc2C(=O)N1C1CCC(=O)NC1=O` (single isomer, unassigned) [Example 248, (1r***,3r***)-3-[3-(6-{[(2S)-2-methyl-4-{[(1r**,4r**)-4-({1-[(7R*)-6-(2,6-dioxopiperidin-3-yl)-7-methyl-5-oxo-5H,6H,7H-pyrrolo[3,4-b]pyridin-2-yl]piperidin-4-yl}oxy)cyclohexyl]methyl}piperazin-1-yl]methyl}-1-oxo-4-(trifluoromethyl)-2,3-dihydro-1H-isoindol-2-yl)phenyl]-3-[(4-methyl-4H-1,2,4-triazol-3-yl)methyl]cyclobutane-1-carbonitrile], the DC50 was greater than 500 nM.

Molecule `CC1c2nc(N3CCC(O[C@H]4CC[C@H](CN5C[C@H]6C[C@@H]5CN6Cc5cc6c(c(C(F)(F)F)c5)CN(c5cccc(C7(Cc8nncn8C)CCC7)c5)C6=O)CC4)CC3)ccc2C(=O)N1C1CCC(=O)NC1=O` (stereo partly drawn) [Example 225, 3-[7-methyl-5-oxo-2-(4-{[(1r,4r)-4-{[(1R,4R)-5-{[2-(3-{1-[(4-methyl-4H-1,2,4-triazol-3-yl)methyl]cyclobutyl}phenyl)-3-oxo-7-(trifluoromethyl)-2,3-dihydro-1H-isoindol-5-yl]methyl}-2,5-diazabicyclo[2.2.1]heptan-2-yl]methyl}cyclohexyl]oxy}piperidin-1-yl)-5H,6H,7H-pyrrolo[3,4-b]pyridin-6-yl]piperidine-2,6-dione] has a DC50 of less than 5 nM and a Dmax of 35 to 70%.

Molecule `Cn1cnnc1CC1(c2cccc(-n3cc4c(C(F)(F)F)cc(CN5CCC[C@H](CN6CCN(C[C@H]7CC[C@@H](OC8CCN(c9ccc%10c(c9F)CN(C9CCC(=O)NC9=O)C%10=O)CC8)CC7)CC6(C)C)C5)cc4n3)c2)COC1` (stereo partly drawn) [Example 267, 3-[4-fluoro-1-oxo-5-(4-{[(1r,4r)-4-[(3,3-dimethyl-4-{[(3S)-1-{[2-(3-{3-[(4-methyl-4H-1,2,4-triazol-3-yl)methyl]oxetan-3-yl}phenyl)-4-(trifluoromethyl)-2H-indazol-6-yl]methyl}piperidin-3-yl]methyl}piperazin-1-yl)methyl]cyclohexyl]oxy}piperidin-1-yl)-2,3-dihydro-1H-isoindol-2-yl]piperidine-2,6-dione] has a DC50 of less than 5 nM and a Dmax greater than 70%.

Work on `Cn1cnnc1CC1(c2cccc(N3Cc4c(cc(CN5CC(C6CN(c7ccc8c(c7)C(=O)N(C7CCC(=O)NC7=O)C8=O)C6)C5)cc4C(F)(F)F)C3=O)c2)COC1` (stereo not drawn) [Example 48, 2-(2,6-dioxopiperidin-3-yl)-5-(1′-{[2-(3-{3-[(4-methyl-4H-1,2,4-triazol-3-yl)methyl]oxetan-3-yl}phenyl)-3-oxo-7-(trifluoromethyl)-2,3-dihydro-1H-isoindol-5-yl]methyl}-[3,3′-biazetidin]-1-yl)-2,3-dihydro-1H-isoindole-1,3-dione] yielded a DC50 of 50 to 500 nM and a Dmax of 35 to 70%.
